We go through three molecules from patent US20230105982A1, “INSULIN-INCRETIN CONJUGATES” (Merck Sharp & Dohme Corp., priority 2021, published 2023).

Format in all cases: cell-based
The target of one experiment is T1, human GCGR (Homo sapiens, UniProt P47871).
T1 construct: expressed in transfected cells
Kind of experiment: cAMP activity assay, cells expressing human GCGR. Conditions: for GCGR/GLP1R ratio: ratio of hGCGR EC50 to hGLP1R EC50, Table 5. On the procedure: (§1) Activity of the incretin peptides or the conjugates at the Glucagon receptor (GCGR) and GLP-1 receptor (GLP1R) may be measured in a cAMP activity assay as follows.
(§2) Peptides are dissolved in 100% DMSO and serially diluted to generate 10 point titrations. The peptide solutions are then transferred into 384-well assay plates (150 nL/well). Assay ready frozen cells expressing human GLP1R or human GCGR are suspended in growth media consisting of DMEM medium (GIBCO), 10% FBS (GIBCO), 1×NEAA(GIBCO), 1×P/S (GIBCO), 10 μg/mL Blasticidin (GIBCO) and 200 μg/mL Hygromycin (GIBCO). […] The cell suspensions (15 μL) are then added to the assay plates containing the peptide solutions (30,000 cells/well for human GCGR; 10,000 cells/well for human GLP1R). The cells are incubated for one hour at room temperature in the dark.
(§3) Production of cAMP may be determined using HitHunter™ cAMPXS kits (DiscoverX) following the manufacturer's protocol. The plates are incubated for overnight at room temperature in the dark. Luminescence may be measured using an EnVision Multilabel plate reader (Perkin Elmer). Native GLP-1 and Glucagon (Bachem) may be used as control peptides. EC50 values may be calculated using uses a 4 parameter logistic fit based on the Levenberg-Marquardt algorithm.

For a further experiment, the target named is human GLP1R (Homo sapiens, UniProt P43220). Kind of experiment: cAMP activity assay, cells expressing human GLP1R. As to conditions: hGLP1R EC50. The method, then:
as §1, §2, §3

The test system of a further experiment is minipig IR. Kind of experiment: Insulin Receptor Phosphorylation (pAkt) Assay, CHO cells overexpressing minipig IR. Conditions: Table 7, read-out: Insulin Receptor pAK Assay EC50 Minipig.

T1 sequence (P47871 26-477): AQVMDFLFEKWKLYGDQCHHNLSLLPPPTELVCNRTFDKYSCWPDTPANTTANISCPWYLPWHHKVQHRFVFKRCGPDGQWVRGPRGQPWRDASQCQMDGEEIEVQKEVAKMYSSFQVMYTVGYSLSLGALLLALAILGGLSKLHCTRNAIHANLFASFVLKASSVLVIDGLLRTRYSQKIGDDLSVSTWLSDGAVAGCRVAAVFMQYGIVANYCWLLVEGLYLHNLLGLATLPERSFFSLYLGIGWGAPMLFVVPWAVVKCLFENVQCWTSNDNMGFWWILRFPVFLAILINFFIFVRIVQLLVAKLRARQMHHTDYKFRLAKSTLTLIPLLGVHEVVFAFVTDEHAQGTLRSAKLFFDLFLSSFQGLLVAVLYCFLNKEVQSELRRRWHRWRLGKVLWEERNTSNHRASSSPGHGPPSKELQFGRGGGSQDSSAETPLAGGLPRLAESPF
human GLP1R, sequence (P43220 24-463): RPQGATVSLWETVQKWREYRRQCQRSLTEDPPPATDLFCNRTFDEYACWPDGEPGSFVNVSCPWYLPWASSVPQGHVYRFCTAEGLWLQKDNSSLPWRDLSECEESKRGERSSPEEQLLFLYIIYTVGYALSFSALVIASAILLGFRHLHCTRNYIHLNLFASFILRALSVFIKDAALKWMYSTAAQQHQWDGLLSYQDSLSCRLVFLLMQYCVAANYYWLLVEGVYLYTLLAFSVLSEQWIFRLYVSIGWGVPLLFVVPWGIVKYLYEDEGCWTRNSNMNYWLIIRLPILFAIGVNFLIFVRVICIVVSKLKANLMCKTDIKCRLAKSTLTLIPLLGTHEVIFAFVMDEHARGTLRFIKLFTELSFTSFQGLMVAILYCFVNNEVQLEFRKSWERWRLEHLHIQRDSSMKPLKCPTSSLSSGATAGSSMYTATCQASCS

In the case of `CCCCCCCCCCCCCCCC(=O)N[C@@H](CCC(=O)N[C@@H](CCC(=O)NCCCC[C@H](NC(=O)[C@H](CC(=O)O)NC(=O)[C@H](CO)NC(=O)[C@@H](NC(=O)[C@H](Cc1ccccc1)NC(=O)[C@@H](NC(=O)CNC(=O)[C@H](CCC(N)=O)NC(=O)[C@@H](CO)NC(=O)[C@@H](N)Cc1c[nH]cn1)[C@@H](C)O)[C@@H](C)O)C(=O)N[C@@H](CO)C(=O)N[C@@H](CCCCN)C(=O)N[C@@H](Cc1ccc(O)cc1)C(=O)N[C@@H](CC(C)C)C(=O)N[C@@H](CC(=O)O)C(=O)NC(C)(C)C(=O)N[C@@H](CCCNC(=N)N)C(=O)N[C@@H](C)C(=O)N[C@@H](C)C(=O)N[C@@H](CCC(N)=O)C(=O)N[C@@H](CC(=O)O)C(=O)N[C@@H](Cc1ccccc1)C(=O)N[C@H](C(=O)N[C@@H](CCCCN=[N+]=[N-])C(=O)N[C@@H](Cc1c[nH]c2ccccc12)C(=O)N[C@@H](CC(C)C)C(=O)N[C@@H](CC(C)C)C(=O)N[C@@H](CC(=O)O)C(=O)N[C@H](C(N)=O)[C@@H](C)O)C(C)C)C(=O)O)C(=O)O` [PEP7], the GCGR/GLP1R ratio on human GCGR is 0.2.
With `CCCCCCCCCCCCCCCC(=O)N[C@@H](CCC(=O)N[C@@H](CCC(=O)NCCCC[C@H](NC(=O)[C@H](CC(=O)O)NC(=O)[C@H](CO)NC(=O)[C@@H](NC(=O)[C@H](Cc1ccccc1)NC(=O)[C@@H](NC(=O)CNC(=O)[C@H](CCC(N)=O)NC(=O)[C@@H](CO)NC(=O)[C@@H](N)Cc1c[nH]cn1)[C@@H](C)O)[C@@H](C)O)C(=O)N[C@@H](CO)C(=O)N[C@@H](CCCCN)C(=O)N[C@@H](Cc1ccc(O)cc1)C(=O)N[C@@H](CC(C)C)C(=O)N[C@@H](CC(=O)O)C(=O)N[C@@H](CCC(=O)O)C(=O)N[C@@H](CCCNC(=N)N)C(=O)N[C@@H](C)C(=O)N[C@@H](C)C(=O)N[C@@H](CCC(N)=O)C(=O)N[C@@H](CC(=O)O)C(=O)N[C@@H](Cc1ccccc1)C(=O)N[C@H](C(=O)N[C@@H](CCCCNC(=O)COCCOCCNC(=O)COCCOCCNC(=O)CCCCN=[N+]=[N-])C(=O)N[C@@H](Cc1c[nH]c2ccccc12)C(=O)N[C@@H](CC(C)C)C(=O)N[C@@H](CC(C)C)C(=O)N[C@@H](CC(=O)O)C(=O)N[C@H](C(N)=O)[C@@H](C)O)C(C)C)C(=O)O)C(=O)O` [PEP15], the half-maximal effective concentration (EC50) was found to be 0.02 nM at human GCGR (hGCGR_EC50) and 0.03 nM on human GLP1R. For the same molecule, the GCGR/GLP1R ratio on human GCGR is listed as 0.7.
In the case of Insulin levemir [IL], the EC50 with minipig IR is 0.5 nM.

What is called EC50 is the concentration that produces a half-maximal response.
